Results taken from publication PMC11882969 (Nature Communications, 2025).

Key:
CB1 (rCB1) [1] = molecular target: T1, CB1 (rCB1) (Rattus norvegicus, UniProt P20272); test: Radioligand competition binding, [3H]-CP-55,940, rat brain membranes; conditions: for pKi [95% CI]: rCB1; for Ki: read-out: Ki [95% CI], rCB1, [3H]-CP-55,940
CB1 (rCB1) [2] = molecular target: T1, CB1 (rCB1); test: Single-point radioligand displacement screen; format: binding; conditions: for % 1H-CP-55,940 displacement (mean) from single point screen: 10 µM, 1 µM or 300 nM by cell colour (not visible); for rep1_displacement / rep2_displacement / rep3_displacement: Figure 1c source data; for rep1_displacement: replicate 1; for rep2_displacement: replicate 2; for rep3_displacement: replicate 3; for % radioligand displacement [S.D]: single point at 10 µM, three replicates

T1 sequence (P20272 whole entry): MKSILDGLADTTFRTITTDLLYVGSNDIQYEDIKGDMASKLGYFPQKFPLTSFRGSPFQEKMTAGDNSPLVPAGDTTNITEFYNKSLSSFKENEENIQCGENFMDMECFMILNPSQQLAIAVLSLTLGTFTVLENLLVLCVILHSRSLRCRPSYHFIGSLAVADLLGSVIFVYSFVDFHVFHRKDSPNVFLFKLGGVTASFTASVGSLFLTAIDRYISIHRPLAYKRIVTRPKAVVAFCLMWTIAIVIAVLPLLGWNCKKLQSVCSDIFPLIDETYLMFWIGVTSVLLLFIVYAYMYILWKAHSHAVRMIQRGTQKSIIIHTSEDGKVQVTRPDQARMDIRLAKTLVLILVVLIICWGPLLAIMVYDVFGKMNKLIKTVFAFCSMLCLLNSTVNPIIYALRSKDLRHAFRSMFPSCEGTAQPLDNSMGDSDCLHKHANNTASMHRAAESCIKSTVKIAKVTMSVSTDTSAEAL

| Structure (SMILES) | pKi [95% CI] (CB1 (rCB1) [1]) | Ki (CB1 (rCB1) [1]) | % 1H-CP-55,940 displacement (mean) from single point screen (CB1 (rCB1) [2]) | rep1_displacement (CB1 (rCB1) [2]) | rep2_displacement (CB1 (rCB1) [2]) | rep3_displacement (CB1 (rCB1) [2]) | % radioligand displacement [S.D] (CB1 (rCB1) [2]) | fold improvement in CB1R affinity (CB1 (rCB1) [1]; vs parent hit or analog without the change) |
| --- | --- | --- | --- | --- | --- | --- | --- | --- |
| CCCCCCC(C)(C)c1cc(O)c2c(c1)OC(C)(C)C1CCC(=O)CC21 (stereo not drawn) [Nabilone, reference compound] | 8.6 [8.4 – 8.9] | 2.3 nM | – | – | – | – | – | – |
| CC(O)C1CCCN(C(=O)c2cc(Oc3cccc(Br)c3)ccn2)C1 (stereo not drawn) [compound 74717] | – | – | 17.22% | 25.4 | 11.4 | 14.8 | – | – |
| Cc1cc(C(=O)NC(c2cccnc2)C2CC2)nn1-c1cccc(C#N)c1 (stereo not drawn) [compound 74836] | – | – | 33.29% | 34.5 | 34.8 | 30.5 | – | – |
| Cc1onc(-c2ccccc2)c1C(=O)OCc1cn2cc(Cl)ccc2n1 [compound 74872] | – | – | 49.60% | 51.6 | 49.2 | 48 | – | – |
| COC(=O)C(OC(=O)c1cc(C)n(-c2cccc(Cl)c2)n1)c1ccsc1 (stereo not drawn) [compound 75729] | – | – | 29.65% | 32.1 | 28 | 28.8 | – | – |
| COC(=O)[C@H]1Cc2ccccc2CN1C(=O)c1cc(C)n(-c2cccc(F)c2)n1 [compound 76400] | – | – | -1.48% | – | – | – | – | – |
| O=C(NCC1CSc2ccccc2O1)c1cn(Cc2ccccc2)nn1 (stereo not drawn) [compound 78184] | – | – | 28.43% | – | – | – | – | – |
| Cc1cc(C(=O)NC(c2cccs2)C(C)(C)CO)nn1-c1cccc(Cl)c1 (stereo not drawn) [compound 78220] | – | – | 5.56% | – | – | – | – | – |
| O=C(OCC1CSc2ccccc2O1)c1ccc(Oc2cccnc2)cc1 (stereo not drawn) [compound 82778] | – | – | 26.16% | – | – | – | – | – |
| CCCC1CN(C(=O)c2cc(Oc3cccc(Br)c3)ccn2)CCO1 (stereo not drawn) [compound 83628] | – | – | 12.80% | 14 | 14.4 | 10.1 | – | – |
| CN(C)c1cc(-c2nc(Cc3ccc4c(c3)OCCO4)no2)c2ccccc2n1 [compound 85562] | – | – | 44.88% | 45.9 | 44.2 | 44.5 | – | – |
| O=C(OCC1CSc2ccccc2O1)c1csc(Cc2ccccc2)n1 (stereo not drawn) [compound 86798] | – | – | 2.04% | – | – | – | – | – |
| CCOc1cncc(NC(=O)c2cc(C)n(-c3cccc(Cl)c3)n2)n1 [compound 88160] | – | – | -5.87% | – | – | – | – | – |
| Cc1cc(C(=O)NC(c2ccccc2)c2ccco2)nn1-c1cccc(F)c1 (stereo not drawn) [compound 88684] | – | – | 39.72% | – | – | – | – | – |
| COC(=O)CC(NC(=O)c1cc(C)n(-c2ccc(OC)cc2)n1)c1cccs1 (stereo not drawn) [compound 90711] | – | – | 7.24% | – | – | – | – | – |
| O=C(OCc1ccc(Cl)cc1-n1cncn1)c1ccnc(OC2CCC2)c1 [compound 91451] | – | – | 17.98% | 15.6 | 20.4 | – | – | – |

| Structure (SMILES) | pKi [95% CI] (CB1 (rCB1) [1]) | Ki (CB1 (rCB1) [1]) | % 1H-CP-55,940 displacement (mean) from single point screen (CB1 (rCB1) [2]) | rep1_displacement (CB1 (rCB1) [2]) | rep2_displacement (CB1 (rCB1) [2]) | rep3_displacement (CB1 (rCB1) [2]) | % radioligand displacement [S.D] (CB1 (rCB1) [2]) | fold improvement in CB1R affinity (CB1 (rCB1) [1]; vs parent hit or analog without the change) |
| --- | --- | --- | --- | --- | --- | --- | --- | --- |
| COC1CCn2cc(C(=O)NCC(Cc3ccccc3)c3ccccc3)nc2C1 (stereo not drawn) [compound 96198] | – | – | 18.71% | 19.2 | 20.5 | 16.4 | – | – |
| Cc1nc(CC2CC2)oc1-c1nc(Cc2ccc3c(c2)OCO3)no1 [compound 97058] | – | – | 17.45% | – | – | – | – | – |
| Cc1ccccc1-n1c(=O)c2ccccc2n2c(SC[C@H]3CCCO3)nnc12 [compound 97662] | – | – | 18.48% | 20.6 | 19.4 | 15.5 | – | – |
| COc1ccc(Cl)c(-c2cc(C(=O)N3CCOC[C@@H]3CC(C)C)on2)c1 [compound 97878] | – | – | 33.55% | 62.5 | 14.5 | 23.7 | – | – |
| O=C1Cc2cc(-c3csc(Cc4ccc(F)cc4)n3)cc3c2N1CCC3 [‘1038] | – | – | 53.57% | 56.9 | 51.4 | 52.5 | 53.6% [2.91] | – |
| COC(=O)[C@H](c1cccs1)N(C)C(=O)c1cc(C)n(-c2cccc(C(F)(F)F)c2)n1 [‘1066] | 5.8 [5.4 – 6.1] | 1720 nM | – | – | – | – | – | – |
| O=c1ccc(-c2nc(C(F)(F)c3ccc(F)cc3)no2)nn1-c1ccc(F)cc1 [‘2443] | – | – | 51.06% | 53.4 | 54.3 | 45.5 | 51.1% [4.87] | – |
| CC(=O)C(C)(NC(=O)c1cc(C)n(-c2cccc(C(F)(F)F)c2)n1)c1cccs1 (stereo not drawn) [‘4156] | 7.9 [7.5 – 8.2] | 13.5 nM | – | – | – | – | – | – |
| Cc1cc(C(=O)NC(C)(c2ccccc2)c2ccco2)nn1-c1cccc(C(F)(F)F)c1 (stereo not drawn) [‘5806] | 8.1 [7.7 – 8.5] | – | – | – | – | – | – | ~15 fold |
| COC(=O)[C@@H](c1cccs1)N(C)C(=O)c1cc(C)n(-c2cccc(C(F)(F)F)c2)n1 [‘6000] | 5.8 [5.7 – 6.0] | 1460 nM | – | – | – | – | – | – |
| COC(=O)C(c1ccco1)N(C)C(=O)c1cc(C)n(-c2cccc(C(F)(F)F)c2)n1 (stereo not drawn) [‘6425] | 6.0 [5.8 – 6.2] | 934 nM | – | – | – | – | – | – |
| COc1cccc(C2(C)CCN(C(=O)CC34CCCCC3C4(F)F)C2)c1 (stereo not drawn) [‘7218] | – | – | 52.18% | 43.4 | 33 | 80.2 | 52.2% [24.79] | – |
| O=C(CCc1ccccc1)c1cn(C2(c3ccc(F)cc3)CCOCC2)nn1 [‘7337] | – | – | 56.96% | 60.4 | 55.9 | 54.6 | 57.0% [3.04] | – |
| Cc1cc(C(=O)Nc2ccnn2-c2cccc(Cl)c2)nn1[C@H](C)C1CC1 [‘7902] | – | – | 57.08% | 57 | 57.3 | 57 | 57.1% [0.02] | – |
| COC(=O)C(NC(=O)c1cc(-c2ccccc2)n(-c2cccc(C(F)(F)F)c2)n1)c1cccs1 (stereo not drawn) [‘8079] | 7.7 [7.6 – 7.9] | 18.5 nM | – | – | – | – | – | – |
